Legend:
[1] = system: human T-cell derived lyphoblastic leukemia cells (CCRF-CEM); assay: Reversal of cytotoxicity by addition of hypoxanthine/purines, AICA, thymidine or leucovorin; assay type: cell-based
From the text: (§1) As noted, the compounds of this invention have an effect on one or more enzymes which utilize folic acid, and in particular metabolic derivatives of folic acid, as a substrate. […] Cytotoxicity is not reversed by addition of purines such as hypoxanthine or by addition of aminoimidazolecarboxamide but is reversed by addition of thymidine, indicating specific inhibition in the tymidylate cycle and not in de novo purine synthesis. The compounds can be used, under the supervision of qualified professionals, to inhibit the growth of neoplasms including choriocarcinoma, leukemia, adenocarcinoma of the female breast, epidermid cancers of the head and neck, squamous or small-cell lung cancer, and various lymphosarcomas. The compounds can also be used to treat mycosis fungoides and psoriasis.
Cytotoxicity is also reversed by addition of leucovorin, indicating the cytotoxicity is due to antagonism of a folate-related mechanism.

L5178Y/TK^- tumor line = assay: In vivo activity against L5178Y/TK^- tumor line in DBA/2 mice (female)
Procedure: In vivo activity can be seen from the following representative data for N-{4-[2-(4-hydroxy-6-aminopyrrolo[2,3-d]pyrimidin-3-yl)ethyl]benzoyl}-L-glutamic acid against the L5178Y/TK^- tumor line in DBA/2 mice (female), administration being ip in a total volume of 0.5 mL daily for eight days: […]

[2] = system: human T-cell derived lyphoblastic leukemia cells (CCRF-CEM); assay: Inhibition of growth of CCRF-CEM cell cultures; assay type: cell-based
From the text: as §1
Representative inhibition values against CCRF-CEM 5 cell cultures for typical compounds are as follows: […]

[3] = dose 25.00, ip daily for eight days
[4] = dose 50.00, ip daily for eight days
[5] = dose 100.00, ip daily for eight days
[6] = dose 200.00, ip daily for eight days

SMILES | Reversal of cytotoxicity by addition of aminoimidazolecarboxamide (AICA) ([1]; addition of aminoimidazolecarboxamide (AICA)) | Reversal of cytotoxicity by addition of purines such as hypoxanthine ([1]; addition of hypoxanthine) | Reversal of cytotoxicity by addition of thymidine ([1]; addition of thymidine) | Toxicity (L5178Y/TK^- tumor line; dose 12.50, ip daily for eight days) | % Inhibition (L5178Y/TK^- tumor line; [3]) [%] | Toxicity (L5178Y/TK^- tumor line; [3]) | Tumor Weight (L5178Y/TK^- tumor line; [3]) | % Inhibition (L5178Y/TK^- tumor line; [4]) [%] | Toxicity (L5178Y/TK^- tumor line; [4]) | Tumor Weight (L5178Y/TK^- tumor line; [4]) | % Inhibition (L5178Y/TK^- tumor line; [5]) [%] | Toxicity (L5178Y/TK^- tumor line; [5]) | Tumor Weight (L5178Y/TK^- tumor line; [5]) | % Inhibition (L5178Y/TK^- tumor line; [6]) [%] | Toxicity (L5178Y/TK^- tumor line; [6]) | Tumor Weight (L5178Y/TK^- tumor line; [6]) | IC50 [2] [µg/mL]
Nc1nc2[nH]cc(CCc3ccc(C(=O)N[C@@H](CCC(=O)O)C(=O)O)cc3)c2c(=O)[nH]1 | not reversed | not reversed | reversed | 0/7 | 100 | 0/7 | 0 ± 0 | 100 | 0/6 | 0 ± 0 | 100 | 0/7 | 0 ± 0 | 100 | 0/7 | 0 ± 0 | –
Nc1nc(O)c2c(CCc3ccc(C(=O)N[C@@H](CCC(=O)O)C(=O)O)o3)c[nH]c2n1 [N-{5-[2-(4-hydroxy-6-aminopyrrolo[2,3-d]pyrimidin-3-yl)ethyl]fur-2-ylcarbonyl}-L-glutamic acid] | – | – | – | – | – | – | – | – | – | – | – | – | – | – | – | – | > 20
